A word on the inhibition: it is the share of the control response that was lost under treatment.

For data set [1], the target named is T1, Methylated-DNA--protein-cysteine methyltransferase (Homo sapiens) (UniProt P16455).
T1 sequence (whole entry): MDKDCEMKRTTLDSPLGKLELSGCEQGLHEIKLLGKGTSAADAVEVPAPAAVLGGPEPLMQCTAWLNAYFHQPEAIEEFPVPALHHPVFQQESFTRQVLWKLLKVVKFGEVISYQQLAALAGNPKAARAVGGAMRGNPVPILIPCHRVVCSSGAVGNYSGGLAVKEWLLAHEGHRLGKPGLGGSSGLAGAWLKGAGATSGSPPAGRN
Description: Inactivation of histidine6-tagged wild type human recombinant O-6-alkylguanine-DNA-alkyltransferase expressed in Escherichia coli assessed as [3H]methylated protein formation in presence of [3H]methylated calf thymus DNA

The target of data set [2] is T1, Methylated-DNA--protein-cysteine methyltransferase (Homo sapiens). This is another data set of the same source.
Description: Inactivation of histidine6-tagged wild type human recombinant O-6-alkylguanine-DNA-alkyltransferase expressed in Escherichia coli assessed as [3H]methylated protein formation in absence of [3H]methylated calf thymus DNA
Data set [3] shares this target. Briefly: Inactivation of histidine6-tagged human recombinant O-6-alkylguanine-DNA-alkyltransferase expressed in Escherichia coli assessed as [3H]methylated protein formation at 1 mM.
Data set [4] can be described thus: Stability assessed as N6-[2-(hydroxymethyl)-benzyl]-2-aminoadenine formation in aqueous solution. In kind it is physicochemical. The settings on record: buffer.
In a further data set the test system is HT-29. Put plainly: Sensitization of human HT-29 cells to BCNU-induced cytotoxicity assessed as survival treated for 2 hrs before BCNU challenge measured after 16 to 18 hrs by colony forming assay. In kind it is functional, cell-based.
In data set [5] the test system is T2, Methylated-DNA--protein-cysteine methyltransferase (Homo sapiens), P16455 [S159A].
T2 sequence (whole entry): T1 sequence (whole entry) with S159A
Description: Inactivation of histidine6-tagged human recombinant O-6-alkylguanine-DNA-alkyltransferase S159A mutant expressed in Escherichia coli assessed as [3H]methylated protein formation in absence of [3H]methylated calf thymus DNA

For data set [6] the test system is unchanged. This is another data set of the same source.
Description: Inactivation of histidine6-tagged human recombinant O-6-alkylguanine-DNA-alkyltransferase S159A mutant expressed in Escherichia coli assessed as [3H]methylated protein formation in presence of [3H]methylated calf thymus DNA
In data set [7] the target is T1, Methylated-DNA--protein-cysteine methyltransferase (Homo sapiens). Briefly: Inactivation of human O-6-alkylguanine-DNA-alkyltransferase in human HT-29 cells at 1 uM after 30 mins by reverse-phase HPLC in presence of [3H]methylated calf thymus DNA.

Each structure is given as a SMILES string. Where a chain is given by its changes, count along the chain named. Activity calls are given as the source filed them. The calls are words filed in the database; no cut-off is given here.

On to `Cc1cccc(COc2nc(N)nc3nc[nH]c23)c1`, for which the ED50 in data set [1] was found to be 0.16 µM; in data set [2], 0.25 µM.

Take `NCc1ccccc1COc1nc(N)nc2nc[nH]c12`: the ED50 in data set [1] was found to be 45 µM; in data set [2], 80 µM.

As to `Cc1ccccc1COc1nc(N)nc2nc[nH]c12`, the ED50 in data set [1] is 90 µM; in data set [2], 185 µM.

In the case of `Nc1nc(NCc2ccccc2CO)c2[nH]cnc2n1`, the inhibition in data set [3] is under 10%. Besides, in data set [4], the t1/2 was 50 h. Moreover, the ED50 in data set [1] and in data set [2] was over 1000 µM throughout.

In the case of `Cc1ccc(COc2nc(N)nc3nc[nH]c23)cc1`, the ED50 in data set [2] was 0.32 µM.

Take `NCc1ccc(COc2nc(N)nc3nc[nH]c23)cc1`: in the data set on HT-29, the outcome was Active. The ED50 in data set [1] amounted to 0.053 µM; in data set [2] it was 0.23 µM; in data set [5], 0.16 µM; in data set [6], 0.028 µM. In addition, in data set [7], the inhibition amounted to 20%.

Source of the values: ChEMBL document CHEMBL1152301, “Substitution of aminomethyl at the meta-position enhances the inactivation of O6-alkylguanine-DNA alkyltransferase by O6-benzylguanine” (J Med Chem, 2008).
